Measurements reported in patent publication US20230037188A1, “TASTEFUL NATURAL SWEETENER AND FLAVOR” (EPC Natural Products Co., Ltd., priority 2018, published 2023).
“Also recorded” adds a separate entry of the source.

Assays:
[1] = Kinetics of reaction (degradation of Phe with Reb-A, Gluc, Xyl, Suc) in dependence of pH-conditions, HPLC/MS; assay type: physicochemical; conditions: for % formation from degraded Reb-A: reaction of Phe and Reb-A
Description: Quantitative evaluation was performed using external standardization.

[2] = Blind descriptive sensory evaluation by trained tasters of differently prepared Stevia-derived MRPs in beverages and ketchup; assay type: in vivo; conditions: added before heating to xylose, phenylalanine and SGA; 150 μl sample per 100 ml
Description: Each sample was added at a concentration of 1500 ppm to freshly prepared lemon juice (squeezed lemons diluted 1:5 with tap water) containing 4% sugar.
Each sample was added at a concentration of 1000 ppm to Felix Ketchup no added sugar (31.12.2019 L8352, 11:48).
Before tasting the tasters discussed the upcoming series of samples and tasted samples with the predetermined attributes (sweetness) with varying intensities to find a common description. Four trained tasters blind taste tested independently all samples of a series. They were allowed to re-taste and prepared notes for sensory attributes perceived including the relative intensity.
In the last step the attributes noted were discussed openly to find an acceptable description. In case that more than 1 taster disagreed with the description, the tasting was repeated.
Before tasting the tasters discussed the upcoming series of samples and tasted samples with the predetermined attributes with varying intensities to find commonality for the description. Four trained tasters blind taste tested independently all samples of a series. They were allowed to re-taste and made notes for the sensory attributes perceived including the relative intensity.
In the last step the attributes noted were discussed openly to find an agreeable description. In case that more than 1 taster disagreed with thedescription, the tasting was repeated. […]

[3] = Sensory evaluation of combinations of EPCalin (Thaumatin), GSGs and SGs and NHDC in water; assay type: in vivo; conditions: 4.5 ppm Thaumatin (10 ppm EPCalin) and/or 50 ppm GSGs and SGs, NHDC 1-5 ppm
Description: 4.5 ppm Thaumatin (equivalent to 10 ppm EPCalin) were dissolved in water. Increasing amounts of NHDC (1-5 ppm) were added to the solution and the sensory properties were evaluated.
50 ppm (GSGs and SGs) were dissolved in water. Increasing amounts of NHDC (1-5 ppm) were added to the solution and the sensory properties were evaluated.
50 ppm (GSGs and SGs) and 4.5 ppm Thaumatin (equivalent to 10 ppm EPCalin) were dissolved in water. Increasing amounts of NHDC (1-5 ppm) were added to the solution and the sensory properties were evaluated.
Sweetness intensity was rated on 5-point scale

[4] = Assay to test DPPH radical-scavenging activity; conditions: combinations of amino acids and Reb-A, 100° C., pH 7.8; iron-III reduction and radical scavenging (FIGS. 49, 50)
Description: 1 mg 1,1-Diphenyl-2-picrylhydrazyl radical (DPPH)/ml ethanol, dilution to assay concentration were prepared in ethanol (40 μg/mL); Calibration samples were prepared with Ascorbic acid in a concentration of 0-10 μg/mL; as a negative control sample, water was used.
Samples in aqueous solution were used as such or diluted with water.
A 0.1 ml sample (or calibration standard) was mixed with 3.9 ml solution of DPPH° (100 μMolar) and reacted while protected from light at room temperature for 30 min. Absorbance was determined at 517 nm against ethanol.
10 mM of amino acid and/or 10 mM sugar were dissolved in 10 ml 0.1 mM KH2PO4-buffer, pH=7.8.
The samples were kept at 100° C. in sealed glass vials (Pyrex 15 ml with screw caps) for 0 (before reaction), 2.5 or 5.0 hours. Thereafter the samples were transferred to an ice water bath and cooled down to room temperature. These samples were diluted 1:10 and used for the test assay for anti-oxidant potential.

SMILES: OC[C@H]1OC(O)[C@H](O)[C@@H](O)[C@@H]1O (stereo partly shown) [Glu]
- % degradation ([1]; reaction of Phe and Gluc, pH = 7.0, 1.0 h, 120° C.): 4.6%

SMILES: COc1ccc(CCC(=O)c2c(O)cc(O[C@@H]3O[C@H](CO)[C@@H](O)[C@H](O)[C@H]3O[C@@H]3O[C@@H](C)[C@H](O)[C@@H](O)[C@H]3O)cc2O)cc1O [NHDC, Neohesperidin dihydrochalcone]
- taste profile in Redbull sugar free [2]: improved the mouth-feel and harmony of taste impression yielding a substantially improved taste profile
- sweetness, onset, mouth-feel and lingering in words [3]: long lasting lingering; also recorded: boosts the lingering

SMILES: C=C1C[C@@]23CC[C@H]4[C@@](C)(CCC[C@@]4(C)C(=O)O)[C@@H]2CC[C@]1(O[C@@H]1O[C@H](CO)[C@@H](O)[C@H](O[C@@H]2O[C@H](CO)[C@@H](O)[C@H](O)[C@H]2O)[C@H]1O[C@@H]1O[C@H](CO)[C@@H](O)[C@H](O)[C@H]1O)C3 [Reb-B]
- % formation from degraded Reb-A ([1]; pH = 5.5): 23.1%
- % formation from degraded Reb-A ([1]; pH = 7.0): 22.7%
- % formation from degraded Reb-A ([1]; pH = 8.5): 19.1%

SMILES: C=C1C[C@@]23CC[C@H]4[C@@](C)(CCC[C@@]4(C)C(=O)O[C@@H]4O[C@H](CO)[C@@H](O)[C@H](O)[C@H]4O)[C@@H]2CC[C@]1(O[C@@H]1O[C@H](CO)[C@@H](O)[C@H](O[C@@H]2O[C@H](CO)[C@@H](O)[C@H](O)[C@H]2O)[C@H]1O[C@@H]1O[C@H](CO)[C@@H](O)[C@H](O)[C@H]1O)C3 [Reb-A, Rebaudioside A]
- anti-oxidant properties [4]: substantial anti-oxidant properties
